# According to publication PMC11304238, “Formulate Adaptive Biphasic Scaffold via Sequential Protein‐Instructed Peptide Co‐Assembly” (Advanced Science, 2024):
# Where a SMILES comes first, the peptide text is derived from it. [ ]: non-standard residue; d: D form. The star is where a group is joined. Acetyl(2-naphthyl) = O=C(Cc1ccc2ccccc2c1)*; pY = N[C@@H](Cc1ccc(OP(=O)(O)O)cc1)C(=O)O
# What was measured:
# hMSCs [1] = assay: hMSC biocompatibility (viability, caspase 3/7, Ki67); type: cell-based, human; settings: 3-day treatment at various concentrations (25 to 500 µM), basal medium, WST-1 viability, caspase 3/7 and Ki67 at 200 µM, n = 3
# Description: (§1) Cells were seeded onto a 96‐well flat‐bottom tissue culture plate (Corning, Falcon) at a density of 0.5 × 10^4 cells cm^−2 and incubated overnight to facilitate cell adhesion. The medium was then replaced with osteogenic medium containing various peptide compounds at concentrations ranging from 25 to 500 µM. As a control, cells were cultured in osteogenic medium supplemented with an equal volume of PBS. Subsequently, the cells were cultured for an additional 72 h, after which their viability was assessed using a WST‐1 assay kit (Roche Diagnostics, IN).
# Figure S12. Chemical structure of peptide P6.
# Figure S13. Chemical structure of peptide P7.
# Figure S14. 3-day hMSCs viability upon the treatment of peptides P1, P2, P3, and control peptides P5, 1:1 mixture of P6/P7 at various concentrations in basal medium (mean ± SD, n = 3).
# Figure S15. Bright field images and fluorescence images of hMSCs upon the treatment of peptides P1, P2, P3, and control peptides P5, 1:1 mixture of P6/P7 at 200 µM in basal medium for 3 days and stained with caspase 3/7 (green). […]
# Figure S16. (a) Fluorescence images of hMSCs upon the treatment of peptides P1, P2, P3, and control peptides P5, 1:1 mixture of P6/P7 at 200 µM in basal medium for 3 days and co-stained with hochest (blue) and Ki67 (red). […] (b) Quantification of Ki67 positive ratio in hMSCs upon the treatments of panel a (mean ± SD, n = 3). […]
# hMSCs [2] = type: cell-based, human; settings: hMSCs pre-cultured 3 days with P3, P5 or P6/P7 (200 µM), then 3 days P4 at various concentrations, osteogenic medium, n = 3
# Description: as §1
# Figure S22. […]
# (§2) Figure S23. Bright field images and fluorescence images of hMSCs upon the treatment of peptides P3, P5, and mixture of P6/P7 at a concentration of 200 µM for 3 days, followed with another 3-day treatment of P4 at a concentration of 200 µM in osteogenic medium. ‘Undifferentiated’ represents cell cultured in basal medium; ‘Ctrl’ represents cell cultured in osteogenic medium upon the treatment of 1xPBS buffer. […]
# as §2, with “S24. (a) Fluorescence” for “S23. Bright field images and fluorescence”
Structure (SMILES),biocompatibility with hMSCs (hMSCs [1]),cytotoxicity of P4 on pre-cultured hMSCs (hMSCs [2])
"CC[C@H](C)[C@H](NC(=O)[C@H](CC(C)C)NC(=O)[C@H](CC(C)C)NC(=O)[C@H](CCCCN)NC(=O)[C@@H](NC(=O)[C@H](Cc1ccccc1)NC(=O)[C@H](Cc1ccccc1)NC(=O)[C@H](Cc1ccccc1)NC(=O)[C@H](CCCNC(=N)N)NC(=O)[C@H](CO)NC(=O)[C@H](CCCNC(=N)N)NC(=O)[C@@H](N)CCCCN)[C@@H](C)CC)C(=O)O [P3, KRSRFFFIKLLI] (H-KRSRFFFIKLLI-OH)",good biocompatibility,–
"O=C(O)CC[C@H](NC(=O)[C@H](Cc1ccc(OP(=O)(O)O)cc1)NC(=O)[C@H](Cc1ccccc1)NC(=O)[C@H](Cc1ccccc1)NC(=O)Cc1ccc2ccccc2c1)C(=O)O [P4, NapFFYpE] ({Acetyl(2-naphthyl)}-FF[pY]E-OH)",–,no cytotoxicity
"O=C(Cc1ccc2ccccc2c1)N[C@@H](Cc1ccccc1)C(=O)N[C@@H](Cc1ccccc1)C(=O)O [P5, NapFF]",good biocompatibility,–
